Patent US20240011030A1, “TREATMENTS FOR RETINAL DEGENERATIVE DISEASES” (Novartis AG, priority 2020, published 2024)

B1: IFNα: type I interferon purchased from R&D Systems (protein, UniProt P01562 24-189, looked up)
Interferon alpha-1/13: CDLPETHSLDNRRTLMLLAQMSRISPSSCLMDRHDFGFPQEEFDGNQFQKAPAISVLHELIQQIFNLFTTKDSSAAWDEDLLDKFCTELYQQLNDLEACVMQEERVGETPLMNADSILAVKKYFRRITLYLTEKKYSPCAWEVVRAEIMRSLSLSTNLQERLRRKE

Tests used:
Assay type in all cases: cell-based, human
DDX58/RIG-I [1] = assay: anti-RIG-I/DDX58 western blot verifying knockout; conditions: ARPE-19-Cas9 cells transduced with gRNA, FIG. 10D
Protocol: (§1) ARPE-19 cells stably expressing the Cas9 gene (ARPE19-Cas9) were generated by lentiviral transduction of ARPE-19 cells. Virus was harvested from supernatants of HEK-293T cells (ATCC) cotransfected with the in-house lentiviral vector pNGx_LV_c010 (39) and Lentiviral Packaging Plasmid Mix (Cellecta, Mountain View, CA; #CPCP-K2A) using TransIT-293 Transfection Reagent (MirusBio, Madison, WI). ARPE19-Cas9 cells were selected with 125 μg/mL HygromycinB (Invitrogen, Carlsbad, CA) and Cas9 expression was verified by western blot using Anti-FLAG primary antibody (Sigma-Aldrich #F1804). ARPE-19 RIG-I KO cells were generated by sgRNA expression in ARPE-19-Cas9 cells by lentiviral infection using the in-house lentiviral vector pNGx_LV_g003 (39). The sgRNA sequence targeting DDX58/RIG-I is 5′-[…]-3′ (SEQ ID NO: 1). Control sgRNA sequences were:
Knockout was verified by western blot (FIG. 10D).
For western blot, samples (30 μg of protein) were dissolved in sample buffer (Invitrogen) and boiled for 5 min at 100° C. The sample was then separated by Criterion™ TGX™ precast gel electrophoresis and electrotransferred onto nitrocellulose membranes (Bio-Rad, Hercules, CA). […] The immuno-reactive proteins were detected using SuperSignal™ West Femto Maximum sensitivity substrate (ThermoFisher Scientific) and imaged on FluorChem M (ProteinSimple, San Jose, CA).

DDX58/RIG-I [2] = assay: CRISPR/Cas9 KO, IFNβ secretion by ELISA after nucleic acid stimulation; conditions: ARPE19-Cas9 cells, 0.25 μg/ml nucleic acid for 24 hours, FIG. 4A
Protocol: Further validation of the importance of RIG-I as an intracellular nucleic acid sensor was performed using CRISPR/Cas9 KO experiments in ARPE-19 cells. An ARPE-19 cell line stably expressing Cas9 (ARPE19-Cas9) was generated, along with control gRNA and RIG-I gRNA-transduced cell lines. ARPE-19 control gRNA and ARPE-19 RIG-I gRNA cells were generated by sgRNA expression in ARPE-19-Cas9 cells by lentiviral infection. The sgRNA sequence targeting DDX58/RIG-I was 5′-[…]-3′ (SEQ ID NO:1). Control sgRNA sequences used were: 5′-[…]-3′ (SEQ ID NO:8), 5′-[…]-3′ (SEQ ID NO:9), 5′-[…]-3′ (SEQ ID NO:10), and 5′-[…]-3′ (SEQ ID NO: 11). […] All cells were stimulated with 0.25 μg/ml nucleic acid for 24 hours, after which IFNβ secretion was measured by ELISA.
ARPE-19 cells stably expressing the Cas9 gene (ARPE19-Cas9) were generated by lentiviral transduction of ARPE-19 cells. […]
For ELISA, assays were run using Meso Scale Discovery plates (Meso Scale Diagnostics, Rockville, MD). […] Lysates or conditioned media were measured in 384-well plates using antibody pairs for ISG15 (R&D #AF4845, #A-830), IFNβ (R&D #DY814), IFNα1 (abcam #ab215408), IFNγ (R&D #DY285B), IFNλ1/3 (R&D #DY1598B), and cGAS (Cayman #23853, CST #66546). Protein levels were measured according to manufacturer instructions, and detected on a Meso Sector S 600 imager.

DDX58/RIG-I [3] = assay: CRISPR/Cas9 KO, IL-6 secretion by ELISA after nucleic acid stimulation; conditions: ARPE-19-RIG-I KO, 0.25 μg/ml nucleic acid for 24 hours, FIG. 4B
Protocol: In addition to the type I IFN response, nucleic acid sensing can also activate NFκB-dependent cytokine release. IL-6 secretion was measured in ARPE19-Cas9, Control gRNA, and RIG-I gRNA cell line cultures 24 hours after nucleic acid stimulation to evaluate nucleic acid-induced NFκB activation in RPE cells. All cells were stimulated with 0.25 μg/ml nucleic acid for 24 hours, after which IL-6 secretion was measured by ELISA.
as §1, with “1).” for “1). Control sgRNA sequences were:”

RPE cells = assay: ISG15 induction by IFN stimulation (ELISA); conditions: THP1, ARPE-19 or iPS-RPE cells, IFNs up to 100 μg/ml, 24 hours, FIGS. 2D to 2F
Protocol: To test whether IFNs can induce an IFN response and, if so, which IFNs can induce an IFN response, cells were treated with different IFNs (IFNα1, IFNβ, IFNγ, or IFNλ1/2/3), and ISG15 induction was measured. Cells were treated with different IFN types at 100 ng/ml each (FIG. 2D) or 0 ng/ml IFN, 0.1 ng/ml IFN, 1 ng/ml IFN, 10 ng/ml IFN, or 100 ng/ml IFN (FIGS. 2E and 2F). ISG15 expression in was detected by ELISA 24 hours after treatment as described above, using antibody pairs for ISG15 (R&D #AF4845, #A-830).
For ELISA, assays were run using Meso Scale Discovery plates (Meso Scale Diagnostics, Rockville, MD). Lysates were extracted using cell lysis buffer (CST #9803), and supplemented with protease and phosphatase inhibitors. Lysates or conditioned media were measured in 384-well plates using antibody pairs for ISG15 (R&D #AF4845, #A-830), IFNβ (R&D #DY814), IFNα1 (abcam #ab215408), IFNγ (R&D #DY285B), IFNλ1/3 (R&D #DY1598B), and cGAS (Cayman #23853, CST #66546). Protein levels were measured according to manufacturer instructions, and detected on a Meso Sector S 600 imager.

Row | Molecule | DDX58 protein by western blot (DDX58/RIG-I [1]) | IFNβ secretion response to all nucleic acid species tested (DDX58/RIG-I [2]) | poly(I:C)-induced IL-6 release (DDX58/RIG-I [3]) | ISG15 induction in response to IFN stimulation (RPE cells)
1 | 5′-ACTCACCCTCCCTAAACCAG-3′ (expressed or natural sequence) [RIG-I gRNA] | lack of detectable DDX58 protein | completely abrogated | only partially reduced | 
2 | B1 |  |  |  | primarily responded
